Data published in patent publication US20100009949A1, “NOVEL METHOD” (BioXell S.p.A., priority 2001, published 2010).

Columns and labels:
[1] = system: PI3K; assay: PI3K assay (immunokinase) after KGF stimulation of DU145 cells; format: cell-based, human; settings: DU145, 1×10^−8 M, KGF 10 ng/ml
Method: PI3K assay: PI3K activity was evaluated in vitro assay as previously described (Luconi et al. 2004). Briefly, cells were stimulated with KGF (5 min) in the presence or absence of 1-alpha-fluoro-25-hydroxy-16,23E-diene-26,27-bishomo-20-epi-cholecalciferol, scraped in PBS supplemented with 1 mM Na3VO4, centrifuged and extracted with lysis buffer (20 mM Tris, pH 7.4, 137 mM NaCl, 1 mM CaCl2, 1 mM MgCl2, 1% NP-40, 1 mM Na3VO4, 1 mM PMSF). After measurement of proteins, the aliquots of cell extracts containing equivalent amount of proteins (500 ug) were incubated for 1 hour with 50 ul of Protein G-Sepharose for preclearing. Precleared lysates were then incubated with an antiphosphotyrosine PY20 antibody overnight at 4° C. with 50 ul of Protein G-Sepharose as described above. The Sepharose beads were washed two times with lysis buffer and twice with a 10 mM Tris-HCl (pH 7.4) containing 0.1 mM EGTA and 5 mM LiCl. After removal of the last wash, the beads were suspended in kinase buffer (10 mM Tris-HCl, 150 mM NaCl, 5 mM EDTA) containing 20 ug of L-alpha-phosphatidylinositol, 25 mM MgCl2 and 10 uCi of [gamma-^32P]ATP, and incubated for 20 min at room temperature. The reaction was stopped by the addition of 60 ul of HCl 6M and 160 ul of a mixture of chloroform and methanol (1:1). […] Quantifications of the bands was performed using a Kodak image analysis system.

[2] = system: prostate; settings: intact and castrated, testosterone-replaced rats; Crescioli et al. 2004; cited from earlier work
[3] = system: DU145 cells; assay: Cell proliferation assay (cell counting), DU145; format: cell-based, human
Method: (§1) Cell proliferation assay: All proliferation tests were performed after 24 h of cell starvation in phenol red- and serum-free medium containing 0.1% BSA. After starvation, cells were incubated in the same medium as before, with or without specific stimuli. Thereafter, cells were trypsinized, and each experimental point was derived from counting in the hemocytometer and then averaging at least six different fields for each well as previously reported (Crescioli et al. 2003). Experiments were performed seeding 4×10^4 cells onto 12-well plates in growth medium and incubated for 48 h with: 1) increasing concentrations of 1-alpha-fluoro-25-hydroxy-16,23E-diene-26,27-bishomo-20-epi-cholecalciferol (1×10^−12, 1×10^−11, 1×10^−10, 1×10^−9, 1×10^−8 M) with or without fixed concentration of KGF (10 ng/ml) or fixed concentration of bFGF (10 ng/ml); 2) fixed concentration of LY 294002 (10 nM) with or without KGF (10 ng/ml). In the same experiment each experimental point was repeated in triplicate and experiments were performed at least three times. Cell growth results are expressed as the percentage of growth compared with their relative controls.
Statistical analysis: All the data are shown as mean±SEM of the indicated number of experiments. Statistical analysis was performed with ANOVA and Student's T test for unpaired and, when applicable, for paired data. IC50 for dose response curves were calculated using the program ALLFIT.

[4] = system: KGF receptor (KGFR); assay: KGF-induced KGFR autotransphosphorylation (immunoprecipitation, Western blot) in DU145 cells; format: cell-based, human
Method: (§2) Immunoprecipitation and Western blot analysis. Protein extraction and immunoprecipitation were performed as previously described (Bonaccorsi et al. 1997). Briefly, cells were scraped in PBS supplemented with 1 mM Na3VO4, centrifuged and resuspended in lysis buffer (20 mM Tris, pH 7.4, 150 mM NaCl, 0.25% NP-40, 1 mM Na3VO4, 1 mM phenylmethyl-sulfonyl fluoride (PMSF)). After protein measurement (Coomassie kit), aliquots of cell lysates containing equal amount of proteins (500 ug) were incubated for 1 hour with 30 ul of Protein A (or Protein G)-Sepharose for preclearing. Precleared lysates were then incubated for 1 hour using 5 ug of specific anti-KGFR antibodies on ice followed by overnight incubation at 4° C. with 30 ul of Protein A (or Protein G)-Sepharose. The immunobeads were washed three times in lysis buffer and then resuspended in 10 ul of 2× Laemmli's reducing sample buffer (62.5 mM Tris pH 6.8, 10% glycerol, 2% SDS, 2.5% pyronin and 200 mM dithiothreitol), boiled at 95° C. for 5 minutes and loaded onto 8% polyacrylamide-bisacrylamide gels. […]

[5] = system: human BPH cells; settings: primary cultures of human BPH cells; Crescioli et al. 2004; cited from earlier work
[6] = system: DU145 cells; assay: Annexin-V binding assay (phosphatidylserine exposure, apoptosis); format: cell-based, human; settings: DU145, 8 hours, 1×10^−8 M; control 57±1.7; n=6, p=0.017
Method: Annexin-V binding assay. Annexin-V binding assay was used to detect translocation of membrane phosphatidylserine (PS) from the inner to the outer side of the plasma membrane, since the exposure of PS is considered an early sign of apoptosis (Kagan et al. 2000). The assay was performed by using the “Annexin-V-Fluos staining Kit” (Roche). Before treatment, cells (1×10^6) were kept in serum-free medium for at least 24 h, then cells were incubated for 8 hours in the presence or absence of Compound 1 (1×10^−8 M), cells (1×10^6) were washed, trypsinized, centrifuged. After two washed in PBS, cells were resuspended in 100 ul of incubation buffer (supplied by manufacturer), 2 ul of Annexin-V-Fluos labeling reagent (Ann-V-F, Annexin-V conjugated to fluorescein, supplied at the 200× concentration by Roche) and 2 ul of propidium iodide solution (PI, 30 ug/ml in PBS) were added. After incubation (15 minutes in the dark at room temperature) samples were analyzed by flow cytometry. For each experimental set, two cell suspensions were prepared for instrumental setting and data analysis: 1) by omitting both Ann-V-F and PI staining (nonspecific fluorescence sample), and 2) by omitting only the PI staining (sample for compensation, see below). […] Fluorescence compensation was set by acquiring […] labeled with only Ann-V-F. For each sample 10.000 events were recorded at flow rate of 200/300 cells/s. […]

[7] = system: PC3 cells; assay: Cell proliferation assay (cell counting), PC3; format: cell-based, human; settings: control 100±17
Method: as §1

[8] = system: DU145 cells; assay: Matrigel invasion assay (Boyden chambers), DU145; format: cell-based, human; settings: 1×10^−8 M, KGF 10 ng/ml, 24 h, no pre-incubation
Method: Invasion assay: Invasion assays were performed as described previously (Bonaccorsi et al. 2000 and 2004a and 2004b) according to Albini et al. (1987) using the Boyden chambers equipped with 8 um porosity polyvinylpyrrolidone-free polycarbonate filters (VWR International, Milan, Italy). A thin layer of Matrigel solution (50 ug/ml) was overlaid on the upper surface of the filter and allowed to gel by incubating the filters at 37° C. for 30 min. Cell ability to invade the substrate was assessed by using some different stimuli: keratinocyte growth factor, KGF (10 ng/ml), in presence or in absence of the inhibitor, 1-alpha-fluoro-25-hydroxy-16,23E-diene-26,27-bishomo-20-epi-cholecalciferol (1×10^−8 M). These molecules were added to the bottom well of the Boyden chambers. 9.5×10^4 cells were then added to the top of the chambers and incubated for 24 h at 37° C. Migrated cells were quantitated by counting cells with a Zeiss microscope (Oberkochen, Germany) equipped with brightfield optics (40× magnification). Results are expressed as the percentage of number of migrated cells per high-power field respect to control.

[9] = system: AKT; assay: AKT serine phosphorylation (Western blot) in KGF-stimulated DU145 cells; format: cell-based, human; settings: DU145, 1×10^−8 M, KGF 10 ng/ml
Method: as §2

[10] = system: prostate; settings: phase II clinical trials for BPH, preliminary results (Montorsi, 2005); cited from earlier work

Question: Which results are given for `C=C1/C(=C\C=C2/CCC[C@]3(C)C([C@@H](C)C/C=C/C(O)(CC)CC)=CC[C@@H]23)C[C@@H](O)C[C@@H]1F` [Compound 1, 1-alpha-fluoro-25-hydroxy-16,23E-diene-26,27-bishomo-20-epi-cholecalciferol]?
Answer: Effect on KGF-stimulated PI3K activity [1]: inhibited the stimulatory effect of KGF on PI3K activity; Effect on prostate growth in vivo [2]: inhibition of prostate growth; percentage number of cells, bFGF + Compound 1 ([3]; DU145, bFGF 10 ng/ml + Compound 1 1×10^−8 M, control 100±8.6): 74.1±9.2 percentage; IC50 ([3]; Homo sapiens, DU-145, basal, 48 h, cell counting, read-out: IC50 of inhibition of basal DU145 cell proliferation): 0.0221 ± 0.0191 nM; Inhibition of KGF-stimulated DU145 proliferation ([3]; KGF 10 ng/ml, 48 h, increasing concentrations of the analogue): completely and dose-dependently inhibits proliferation; Effect on KGF-induced autotransphosphorylation of KGFR ([4]; DU145, 5 minutes pre-incubation, 1×10^−8 M, KGF 10 ng/ml): abrogated; Inhibitory effect on KGFR autophosphorylation after alpha-amanitin ([4]; DU145, after 4 hours incubation with 4 ug/ml alpha-amanitin): still present; Effect on prostate cell proliferation in vitro [5]: decrease prostate cell proliferation; percentage Annexin-V positive live cells [6]: 62±1.2 percentage; percentage number of cells, KGF + Compound 1 ([7]; PC3, KGF 10 ng/ml + Compound 1 1×10^−8 M): 69.9±9.9 percentage; Effect on KGF-stimulated Matrigel invasion of DU145 cells [8]: completely inhibited; Effect on KGF-stimulated AKT serine phosphorylation [9]: inhibited KGF-stimulated AKT serine phosphorylation; Prostate volume compared to placebo [10]: significant reduction of prostate volume

Question: With “bFGF: growth factor used as stimulus of DU145 proliferation (10 ng/ml)” as the molecule, how does the “percentage number of cells, bFGF alone” value ([3]; DU145, bFGF 10 ng/ml, control 100±8.6) read?
Answer: 138±19.5 percentage

B1: KGF: Keratinocyte growth factor, stimulus, obtained from Prepro Tech EC (protein, UniProt P21781 32-194, looked up)
Fibroblast growth factor 7: CNDMTPEQMATNVNCSSPERHTRSYDYMEGGDIRVRRLFCRTQWYLRIDKRGKVKGTQEMKNNYNIMEIRTVAVGIVAIKGVESEFYLAMNKEGKLYAKKECNEDCNFKELILENHYNTYASAKWTHNGGEMFVALNQKGIPVRGKKTKKEQKTAHFLPMAIT
Question: Which “percentage number of cells, KGF alone” value ([7]; PC3, KGF 10 ng/ml) does the source give for B1 here?
Answer: 121.3±13 percentage
